Laboratory results from patent US12648924B2, “Prevention and treatment of effects of aging and age-associated disorders with ketone supplementation” (priority 2020, dated 2026).

Experiments:
[1] = Blood glucose and ketones after single KDE gavage at various dosages (Experiment 5a); format: in vivo, VM/Dk mice; details: vs timepoint 0
Method: Metabolic Biomarkers: Blood glucose and R β-hydroxybutyrate were measured using Precision Xtra™ Blood Glucose & Ketone Monitoring System (Abbott Laboratories, Abbott Park, IL). Blood lactate concentration was measured using Lactate Plus Lactate Meter (Nova Biomedical). IGF-1 and Insulin were relabeled for blinded analysis and subsequently analyzed using Luminex 100 system (Luminex, Austin, TX) with R&D Systems Mouse 1-Plex Luminex Assay (R&D Systems, Minneapolis, MN) and Milliplex Mouse Multiplex Kit (Millipore, St. Charles, MO), respectively, using manufacturer's protocol.
Ketone Diester Mitigates Bodyweight Loss and Comorbidities in Inflammation-Induced Atrophy: Reductions in anorexia, tumor burden, and skeletal muscle atrophy all present ideal outcomes in the clinical environment of CACS. It should be noted, however, that altered anorexia and tumor burden can confound interpretation of the direct effects of the KDE on skeletal muscle atrophy. […] Due to the rapid nature of LPS-induced atrophy, various dosages of KDE were gavaged to determine their ability to rapidly shift systemic metabolism. […] To determine KDE's effect on cancer-independent catabolism, a maximal non-fatal LPS dose (10 mg/kg) was administered, followed by a single 4 mL/kg water (LPS) or KDE (KDE+LPS) gavage. KDE attenuated bodyweight loss 47% within the first 24 hours post-LPS administration (FIG. 7B).

[2] = KDE in LPS-induced sepsis, inflammation-induced atrophy, ad libitum fed (Experiment 5b); format: in vivo, VM/Dk mice; details: single 4 mL/kg KDE gavage after 10 mg/kg LPS
Method: VM-M3 Cell and Lipopolysaccharide Implantation: For VM-M3 implantation in the model characterization experiments (FIG. 1-5; FIG. 8-12), ˜1×10^6 VM-M3 cells (T. Seyfried, Boston College) in 300 μL sterile PBS (CA-M and CA-F) or 300 μL sterile PBS-only (SH-M and SH-F) were injected subcutaneously into the left abdominal flank resulting in primary tumor formation at the injection site, and subsequently systemically metastasizes to most major organs, namely the liver, kidneys, spleen, lungs, and brain. […] This method of implantation further minimized variability in markers of tumor progression, and therefore provides a useful optional method technique in the VM-M3 model for efficient analysis of potential therapeutic agents. To determine KDE-induced effects on CACS, 1×10^6 VM-M3 cells in 300 μL sterile PBS (KDE+VM-M3 and VM-M3) or 300 μL sterile PBS-only (Sham) were administered intraperitoneally (FIG. 6; FIG. 13). For LPS administration in the septic atrophy model, LPS (Escherichia coli 055:B5; L2880; Sigma-Aldrich, St. Louis, MO) was diluted in sterile PBS and administered intraperitoneally at 10 mg/kg as pilot work indicated a maximal, yet non-fatal, ˜15% bodyweight reduction at 10 mg/kg dose.
Body Composition: Bodyweight was assessed daily at the same time (7:00-9:00 AM). At EOL, bodyweight and weights of ascites fluid, primary tumor, calf (combined gastrocnemius & soleus), anterior thigh (quadriceps), intraperitoneal fat pads, liver and spleen tissue were measured (Table 1; Experiment 1a&b). A follow-up time course experiment was conducted at weeks 1, 2, and 3 to assess weekly changes in bodyweight and aforementioned tissues for both cancer and sham-matched control animals (Experiment 2). For follow up evaluation of KDE in CACS, bodyweight was tracked daily with tissue weight determined at 21-days, prior to EOL (Experiment 4c). All tissue weights were gathered at harvest and normalized to baseline bodyweight (not influenced by cachexia progression) to allow for appropriate comparison between animals. For evaluation of KDE in LPS, bodyweight was tracked daily for evaluation pre- and post-LPS administration (Experiment 5b&c).
Food Intake and Ketone Diester Administration: Standard diet dry food (2018 Teklad Global 18% Protein Rodent Diet, Harlan) was mixed with deionized water (1 g dry food/mL deionized water) into a consistent paste and placed on a 100×15 mm dish. Food intake was tracked daily at the same time (7:00-9:00) and replaced every other day to ensure fresh food. […] As pilot work indicated potential water evaporation in food paste in ventilated cages, dehydration standard curve was calculated across various volumes of plated food (5, 10, 25.0, 50.0, 100 g/food) with and without KDE over a two-day period. […]

With `CC(=O)CC(=O)OCCC(C)OC(=O)CC(C)=O` (centres unmarked) [KDE, R/S 1,3-butanediol acetoacetate diester] the blood glucose ([1]; 4 mL/kg KDE gavage) was “significant and rapid reductions”, the blood ketones ([1]; 4 mL/kg KDE gavage) was “elevations in blood ketones” and the blood glucose ([1]; 5 mL/kg KDE gavage) was “significant and rapid reductions”. For the same compound, the blood ketones ([1]; 5 mL/kg KDE gavage) was “elevations in blood ketones”, the “anorexic symptoms (percentage caloric restriction)” value ([2]; 1 day post LPS) was “significantly reduced” and the “attenuation of bodyweight loss” value ([2]; first 24 hours, vs LPS with water) was 47%. The “chronic LPS-induced bodyweight loss” value ([2]; followed 13 days) was “significantly attenuated” and the “time to recovery (return to baseline bodyweight)” value ([2]; LPS alone did not recover within 13 days) was at most 10 days.
